Measurements published in article PMC7782793, “Hydroxamic acid-modified peptide microarrays for profiling isozyme-selective interactions and inhibition of histone deacetylases” (Nature Communications, 2021).
“And” between values parts separate entries of the source, which are not always exact repeats. Identical values can stand only once. Marks after values point to notes of the source that are not given here. Non-standard residues stand in square brackets, D forms with d. Residues, ends and D or L forms follow the SMILES beside them. *: point of attachment. Asu = N[C@@H](CCCCCC(=O)O)C(=O)O; NHOH = ON*

What was measured:
[1] = target: T1, HDAC1 (Homo sapiens, UniProt Q13547); test: Recombinant HDAC µSPOT microarray binding assay;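 further: slides with spotted peptides incubated with six HDAC concentrations in HEPES buffer pH 7.4, spot intensities fitted by four-parameter logistic, EC50 as enzyme concentration giving half-maximal binding signal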
T1 construct: HDAC1 (full length, C-terminal His tag, C-terminal FLAG tag, BPS Bioscience, cat. #: 50051); FLAG (C); purchased BPS Bioscience 50051
T1 sequence (Q13547 whole entry): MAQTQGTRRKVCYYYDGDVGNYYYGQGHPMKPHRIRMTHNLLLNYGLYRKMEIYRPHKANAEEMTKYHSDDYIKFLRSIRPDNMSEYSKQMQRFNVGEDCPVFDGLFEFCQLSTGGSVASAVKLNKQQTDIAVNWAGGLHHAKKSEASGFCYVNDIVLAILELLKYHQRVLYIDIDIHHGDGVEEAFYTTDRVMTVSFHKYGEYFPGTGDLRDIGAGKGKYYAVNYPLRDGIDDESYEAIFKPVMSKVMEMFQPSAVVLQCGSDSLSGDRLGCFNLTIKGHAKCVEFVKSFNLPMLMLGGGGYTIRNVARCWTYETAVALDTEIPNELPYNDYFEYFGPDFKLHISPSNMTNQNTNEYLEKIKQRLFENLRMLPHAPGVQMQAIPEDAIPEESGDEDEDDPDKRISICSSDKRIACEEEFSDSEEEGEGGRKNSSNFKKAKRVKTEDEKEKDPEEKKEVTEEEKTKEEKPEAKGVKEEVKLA

[2] = target: T2, HDAC2 (Homo sapiens, UniProt Q92769); test: Recombinant HDAC µSPOT microarray binding assay;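 further: Cellulose-bound peptide spots on slides incubated with six HDAC enzyme concentrations, binding intensity read, four-parameter variable-slope fit, EC50 is enzyme concentration giving half-maximal binding, in HEPES buffer pH 7.4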
T2 construct: HDAC2 (full length, C-terminal His tag, BPS Bioscience, cat. #: 50002); purchased BPS Bioscience 50002
T2 sequence (Q92769 whole entry): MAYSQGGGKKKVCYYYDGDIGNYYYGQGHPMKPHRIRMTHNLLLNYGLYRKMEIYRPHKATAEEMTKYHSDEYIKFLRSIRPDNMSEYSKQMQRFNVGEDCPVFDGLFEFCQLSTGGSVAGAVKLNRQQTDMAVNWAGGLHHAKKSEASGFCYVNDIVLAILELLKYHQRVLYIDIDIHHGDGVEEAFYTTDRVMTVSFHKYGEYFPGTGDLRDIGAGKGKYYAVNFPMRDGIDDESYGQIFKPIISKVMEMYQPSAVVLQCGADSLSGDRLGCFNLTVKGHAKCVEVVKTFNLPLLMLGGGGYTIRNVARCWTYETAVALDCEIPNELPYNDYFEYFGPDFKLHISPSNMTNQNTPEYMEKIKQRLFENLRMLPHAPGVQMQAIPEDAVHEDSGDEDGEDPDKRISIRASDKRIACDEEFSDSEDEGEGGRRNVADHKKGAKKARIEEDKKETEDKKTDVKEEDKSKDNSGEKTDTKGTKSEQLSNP
Description: Experiments were performed twice, data were obtained with Array Analyze software (Active Motif), and data analysis and representation were performed with the GraphPad Prism 7 software. Outliers were curated manually and data were fitted to nonlinear regression [log(agonist) vs. response—variable slope (four parameters)]. […] Non-sigmoidal curves were denoted as not determined (N.D.) The pEC50 values were determined as the concentration of HDAC enzyme required for half-maximal binding signal.

[3] = target: T3, HDAC3/NCoR2 (Homo sapiens, UniProt O15379); test: Recombinant HDAC µSPOT microarray binding assay;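 further: peptide spots on cellulose slides incubated with rising HDAC enzyme concentrations, imaged together, four-parameter logistic fit, EC50 is enzyme concentration giving half-maximal binding signal, two experiments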
T3 construct: HDAC3/NCoR2 (full length, C-terminal His tag, NCoR2 N-terminal GST tag); purchased BPS Bioscience 50003
T3 sequence (O15379 whole entry): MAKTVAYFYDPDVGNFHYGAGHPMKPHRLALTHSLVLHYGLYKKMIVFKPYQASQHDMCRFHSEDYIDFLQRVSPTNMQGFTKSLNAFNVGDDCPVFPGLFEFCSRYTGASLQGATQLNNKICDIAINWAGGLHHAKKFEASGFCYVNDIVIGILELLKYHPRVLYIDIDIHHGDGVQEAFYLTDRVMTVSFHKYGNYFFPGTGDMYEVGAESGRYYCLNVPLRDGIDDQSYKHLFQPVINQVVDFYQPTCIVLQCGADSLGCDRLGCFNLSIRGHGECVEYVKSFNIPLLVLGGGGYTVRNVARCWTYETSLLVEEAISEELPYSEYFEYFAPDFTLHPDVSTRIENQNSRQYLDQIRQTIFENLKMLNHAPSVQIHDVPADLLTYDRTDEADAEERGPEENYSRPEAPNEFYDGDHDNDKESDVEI
T3 sequence (Q9Y618 389-480 partner limits assumed): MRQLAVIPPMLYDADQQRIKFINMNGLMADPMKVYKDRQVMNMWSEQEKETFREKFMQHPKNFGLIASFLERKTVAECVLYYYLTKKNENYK

[4] = target: T4, HDAC8 (Homo sapiens, UniProt Q9BY41); test: Recombinant HDAC µSPOT microarray binding assay;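 further: peptide µSPOT slides incubated with varying HDAC enzyme concentrations, imaged signal intensity fitted by four-parameter variable-slope regression, EC50 is enzyme concentration giving half-maximal binding, pH 7.4 HEPES buffer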
T4 construct: HDAC8 (full length, C-terminal His tag, BPS Bioscience, cat. #: 50008); purchased BPS Bioscience 50008
T4 sequence (Q9BY41 1-377): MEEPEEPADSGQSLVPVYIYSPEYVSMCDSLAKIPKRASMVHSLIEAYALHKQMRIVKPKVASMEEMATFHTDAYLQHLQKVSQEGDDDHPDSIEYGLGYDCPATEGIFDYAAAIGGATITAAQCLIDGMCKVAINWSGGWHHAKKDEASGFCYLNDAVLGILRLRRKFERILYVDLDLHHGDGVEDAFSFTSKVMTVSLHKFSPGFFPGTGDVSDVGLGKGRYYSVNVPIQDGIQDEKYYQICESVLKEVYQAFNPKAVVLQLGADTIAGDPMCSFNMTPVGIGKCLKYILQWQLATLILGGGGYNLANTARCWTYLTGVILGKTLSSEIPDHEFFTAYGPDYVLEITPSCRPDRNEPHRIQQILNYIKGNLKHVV

[5] = target: T1, HDAC1; test: HDAC inhibition assay (fluorogenic, Ac-Leu-Gly-Lys(Ac)-AMC); format: biochemical; conditions: for HDAC1 dose-response data (relative enzyme activity), Fig. 6 + S. Fig. 10: duplicate columns
[6] = target: T2, HDAC2; test: as above; format: biochemical; conditions: for HDAC2 dose-response data (relative enzyme activity), Fig. 6 + S. Fig. 10: duplicate columns
[7] = target: T3, HDAC3/NCoR2; test: as above; format: biochemical; conditions: for HDAC3 dose-response data (relative enzyme activity), Fig. 6 + S. Fig. 10: duplicate columns
[8] = target: T4, HDAC8; test: HDAC inhibition assay (fluorogenic, Ac-Leu-Gly-Lys(Tfa)-AMC); format: biochemical; conditions: for HDAC8 dose-response data (relative enzyme activity, replicate values), Fig. 6 + S. Fig. 10: two replicate columns per inhibitor; for HDAC8 dose-response data (relative enzyme activity), Fig. 6 + S. Fig. 10: duplicate columns
[9] = target: T5, HDAC6 (Homo sapiens, UniProt Q9UBN7); test: HDAC inhibition assay (fluorogenic, Ac-Leu-Gly-Lys(Ac)-AMC); format: biochemical; conditions: HDAC6, replicates
T5 construct: HDAC6 (full length, BPS Bioscience, cat. #: 50056); purchased BPS Bioscience 50056
T5 sequence (Q9UBN7 1-1215): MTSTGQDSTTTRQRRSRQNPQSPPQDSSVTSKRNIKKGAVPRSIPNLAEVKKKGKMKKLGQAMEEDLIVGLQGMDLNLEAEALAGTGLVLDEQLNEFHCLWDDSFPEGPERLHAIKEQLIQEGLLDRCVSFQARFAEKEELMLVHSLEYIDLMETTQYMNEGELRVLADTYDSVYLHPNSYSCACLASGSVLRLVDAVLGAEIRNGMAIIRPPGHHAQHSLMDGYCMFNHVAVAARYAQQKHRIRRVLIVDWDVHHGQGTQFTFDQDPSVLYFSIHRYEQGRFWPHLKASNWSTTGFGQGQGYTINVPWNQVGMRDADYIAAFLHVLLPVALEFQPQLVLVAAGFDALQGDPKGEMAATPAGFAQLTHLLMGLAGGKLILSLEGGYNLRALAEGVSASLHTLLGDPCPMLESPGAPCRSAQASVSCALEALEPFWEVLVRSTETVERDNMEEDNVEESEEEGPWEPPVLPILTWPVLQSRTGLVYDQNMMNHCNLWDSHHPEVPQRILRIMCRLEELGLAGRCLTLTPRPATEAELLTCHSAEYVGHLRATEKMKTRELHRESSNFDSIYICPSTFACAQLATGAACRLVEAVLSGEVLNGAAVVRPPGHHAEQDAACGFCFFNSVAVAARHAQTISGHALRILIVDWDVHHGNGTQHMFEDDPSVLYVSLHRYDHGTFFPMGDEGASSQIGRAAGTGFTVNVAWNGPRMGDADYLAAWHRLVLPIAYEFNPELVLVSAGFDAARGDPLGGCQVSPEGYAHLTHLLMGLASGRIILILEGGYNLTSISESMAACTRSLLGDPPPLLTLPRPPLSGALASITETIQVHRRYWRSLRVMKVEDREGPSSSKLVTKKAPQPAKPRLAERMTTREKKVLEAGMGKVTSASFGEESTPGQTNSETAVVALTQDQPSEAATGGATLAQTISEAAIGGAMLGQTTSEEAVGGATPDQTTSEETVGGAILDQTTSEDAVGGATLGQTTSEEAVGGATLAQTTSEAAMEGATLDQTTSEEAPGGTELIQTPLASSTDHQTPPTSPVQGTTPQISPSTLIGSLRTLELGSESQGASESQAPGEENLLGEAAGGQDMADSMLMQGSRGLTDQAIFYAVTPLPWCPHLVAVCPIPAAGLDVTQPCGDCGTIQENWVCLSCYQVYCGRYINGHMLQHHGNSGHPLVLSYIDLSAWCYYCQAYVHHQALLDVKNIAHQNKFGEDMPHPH

[10] = log[inhibitor(M)] -10,5850266520292*, whole line marked with asterisks
[11] = resynthesized peptides, from Ki

CC[C@H](C)[C@H](NC(=O)[C@@H](NC(=O)[C@H](CO)NC(=O)[C@H](CCCNC(=N)N)NC(=O)[C@H](CCCCCC(=O)NO)NC(=O)[C@H](CC(N)=O)NC(=O)[C@H](Cc1ccc(O)cc1)NC(=O)[C@H](Cc1c[nH]cn1)NC(=O)[C@H](C)NC(=O)[C@H](CC(C)C)NC(=O)[C@H](CCCNC(=N)N)NC(=O)[C@H](CO)NC(=O)[C@H](C)NC(=O)[C@H](CCC(=O)O)NC(C)=O)[C@@H](C)O)C(=O)N[C@H](C(=O)N[C@@H](CO)C(=O)N[C@@H](Cc1c[nH]c2ccccc12)C(N)=O)[C@@H](C)O [11a] (Ac-EASRLAHYN[Asu](NHOH)RSTITSW-NH2)
EC50 [1]: > 25.1 nM | EC50 [2]: > 25.1 nM | EC50 [3]: 2.82 nM | EC50 [4]: > 25.1 nM | Ki [5]: 13.1 ± 0.1 nM | HDAC1 dose-response data (relative enzyme activity), Fig. 6 + S. Fig. 10 ([5]; log[inhibitor(M)] -5.69897): 4.17 and 5.0607 | HDAC1 dose-response data (relative enzyme activity), Fig. 6 + S. Fig. 10 ([5]; log[inhibitor(M)] -6.39794): 14.283 and 18.2541 | HDAC1 dose-response data (relative enzyme activity), Fig. 6 + S. Fig. 10 ([5]; log[inhibitor(M)] -7.09691): 37.8888 and 46.2715 | HDAC1 dose-response data (relative enzyme activity), Fig. 6 + S. Fig. 10 ([5]; log[inhibitor(M)] -7.79588): 70.7486 and 79.6987 | HDAC1 dose-response data (relative enzyme activity), Fig. 6 + S. Fig. 10 ([5]; log[inhibitor(M)] -8.49485): 87.0411 and 94.7749 | HDAC1 dose-response data (relative enzyme activity), Fig. 6 + S. Fig. 10 ([5]; log[inhibitor(M)] -9.19382): 97.6689 and 100.068 | HDAC1 dose-response data (relative enzyme activity), Fig. 6 + S. Fig. 10 ([5]; log[inhibitor(M)] -9.89279): 97.248 and 100.059 | HDAC1 dose-response data (relative enzyme activity), Fig. 6 + S. Fig. 10 [5, 10]: 97,6864843* and 100,018018* | HDAC2 dose-response data (relative enzyme activity), Fig. 6 + S. Fig. 10 ([6]; log[inhibitor(M)] -5): 1.895 and 2.051 | HDAC2 dose-response data (relative enzyme activity), Fig. 6 + S. Fig. 10 ([6]; log[inhibitor(M)] -5.69897): 7.362 and 7.275 | HDAC2 dose-response data (relative enzyme activity), Fig. 6 + S. Fig. 10 ([6]; log[inhibitor(M)] -7.79588): 79.8909 and 86.975 | HDAC2 dose-response data (relative enzyme activity), Fig. 6 + S. Fig. 10 [6, 10]: 93,4642959* and 101,701404* | Ki ([6]; resynthesized peptide in solution, Cheng-Prusoff, n = 2): 13.8 ± 0.1 nM | Ki [7]: 3.45 ± 0.02 nM | HDAC3 dose-response data (relative enzyme activity), Fig. 6 + S. Fig. 10 ([7]; log[inhibitor(M)] -4.30103): 0.8032 and 0.6973 | HDAC3 dose-response data (relative enzyme activity), Fig. 6 + S. Fig. 10 ([7]; log[inhibitor(M)] -5): 0.9208 and 1.031 | HDAC3 dose-response data (relative enzyme activity), Fig. 6 + S. Fig. 10 ([7]; log[inhibitor(M)] -5.69897): 3.115 and 3.491 | HDAC3 dose-response data (relative enzyme activity), Fig. 6 + S. Fig. 10 ([7]; log[inhibitor(M)] -6.39794): 8.97 and 10.4813 | HDAC3 dose-response data (relative enzyme activity), Fig. 6 + S. Fig. 10 ([7]; log[inhibitor(M)] -7.09691): 21.4302 and 25.3963 | HDAC3 dose-response data (relative enzyme activity), Fig. 6 + S. Fig. 10 ([7]; log[inhibitor(M)] -7.79588): 44.8111 and 52.4153 | HDAC3 dose-response data (relative enzyme activity), Fig. 6 + S. Fig. 10 ([7]; log[inhibitor(M)] -8.49485): 70.9236 and 81.6314 | HDAC3 dose-response data (relative enzyme activity), Fig. 6 + S. Fig. 10 ([7]; log[inhibitor(M)] -9.19382): 91.8976 and 96.1605 | HDAC3 dose-response data (relative enzyme activity), Fig. 6 + S. Fig. 10 ([7]; log[inhibitor(M)] -9.89279): 95.3177 and 97.0902 | HDAC3 dose-response data (relative enzyme activity), Fig. 6 + S. Fig. 10 [7, 10]: 96,0565351* and 98,690933* | selectivity for HDAC3 vs. HDAC8 [7, 11]: 63 fold and > 60 fold | selectivity for HDAC3 vs. HDACs 1 and 2 [7, 11]: 4 fold and ~ 4 fold | Ki [8]: 216 ± 1 nM | HDAC8 dose-response data (relative enzyme activity, replicate values), Fig. 6 + S. Fig. 10 ([8]; Inhibitor conc [M] -8.49485 (log)): 96.1111 and 96.5276 | HDAC8 dose-response data (relative enzyme activity, replicate values), Fig. 6 + S. Fig. 10 ([8]; Inhibitor conc [M] -9.19382 (log)): 96.7641 and 98.5453 | HDAC8 dose-response data (relative enzyme activity, replicate values), Fig. 6 + S. Fig. 10 ([8]; Inhibitor conc [M] given as -7.09691 (log)): 74.7826 and 76.7416 | HDAC8 dose-response data (relative enzyme activity, replicate values), Fig. 6 + S. Fig. 10 ([8]; Inhibitor conc [M] given as -7.79588 (log)): 92.4501 and 93.9678 | HDAC8 dose-response data (relative enzyme activity, replicate values), Fig. 6 + S. Fig. 10 ([8]; Inhibitor conc [M] given as -9.89279 (log)): 96.0276 and 96.961 | HDAC8 dose-response data (relative enzyme activity, replicate values), Fig. 6 + S. Fig. 10 ([8]; Inhibitor conc [M] given as -10.585 (log)): 97,4443859* and 98,1506198* | HDAC8 dose-response data (relative enzyme activity), Fig. 6 + S. Fig. 10 ([8]; Inhibitor conc [M] -4.30103): 1.735 and 1.62 | HDAC8 dose-response data (relative enzyme activity), Fig. 6 + S. Fig. 10 ([8]; Inhibitor conc [M] -5): 6.862 and 6.863 | HDAC8 dose-response data (relative enzyme activity), Fig. 6 + S. Fig. 10 ([8]; Inhibitor conc [M] -5.69897): 19.3274 and 19.565 | HDAC8 dose-response data (relative enzyme activity), Fig. 6 + S. Fig. 10 ([8]; Inhibitor conc [M] -6.39794): 44.2904 and 45.2063 | residual enzymatic activity relative to control wells ([9]; log[inhibitor(M)] -4.30103): 2.583 and 1.686 | residual enzymatic activity relative to control wells ([9]; log[inhibitor(M)] -5): 3.305 and 1.741 | residual enzymatic activity relative to control wells ([9]; log[inhibitor(M)] -5.69897): 5.202 and 4.016 | residual enzymatic activity relative to control wells ([9]; log[inhibitor(M)] -6.39794): 10.5662 and 11.8653 | residual enzymatic activity relative to control wells ([9]; log[inhibitor(M)] -7.09691): 30.8137 and 34.4652 | residual enzymatic activity relative to control wells ([9]; log[inhibitor(M)] -7.79588): 67.8407 and 69.7758 | residual enzymatic activity relative to control wells ([9]; log[inhibitor(M)] -8.49485): 85.433 and 85.1351 | residual enzymatic activity relative to control wells ([9]; log[inhibitor(M)] -9.19382): 83.1934 and 87.9013 | residual enzymatic activity relative to control wells ([9]; log[inhibitor(M)] -9.89279): 78.0457 and 86.7533 | residual enzymatic activity relative to control wells ([9]; log[inhibitor(M)] -10.585): 79.87 and 88.4822
